Measurements taken from patent US12390439B2, “Oral liquid formulation of methocarbamol” (Liqmeds Worldwide Limited, priority 2023, dated 2025).
Converted amounts (≈) assume the structure as drawn.

Key:
Type in all cases: physicochemical
[1] = Solubility of methocarbamol in different vehicles at various pH conditions
Description: Solubility of Methocarbamol was carried out in different vehicles at various pH conditions, and the results are presented in Table 1.

[2] = Photostability study of formulation B3
[3] = Drug-excipient compatibility study: related substance; details: higher temperature conditions
Description: Accurately weighed quantity of methocarbamol, and individual excipients were mixed as per ratio mentioned in the drug-excipient compatibility table. Mixtures were filled in glass vials, plugged using LDPE plugs which were manually punctured.
Filled glass vials were exposed to temperature and humidity conditions i.e. 60° C.±2° C., and 40° C.±2° C./75±5% RH for 4 weeks.

[4] = API in Protected Condition (Control)

## COc1ccccc1OCC(O)COC(N)=O (stereo not drawn) [methocarbamol]
[1]; 0.1N HCl
  Vol. req. to dissolve 1500 mg API: 100.00 mL
[1]; 0.1N HCl, simulated gastric fluid
  solubility: 15.5 mg/mL (≈ 64.1 mM)
[1]; Purified water
  Vol. req. to dissolve 1500 mg API: 98.02 mL
[1]; all pH media
  Solubility (conclusion): high solubility
[1]; aqueous buffer, pH 4.5 acetate buffer
  solubility: 16.9 mg/mL (≈ 69.9 mM)
[1]; aqueous buffer, pH 6.8 phosphate buffer
  solubility: 14.1 mg/mL (≈ 58.4 mM)
[1]; aqueous buffer, pH 7.2 phosphate buffer
  solubility: 13.6 mg/mL (≈ 56.5 mM)
[1]; pH 4.5 acetate buffer
  Vol. req. to dissolve 1500 mg API: 88.96 mL
[1]; pH 6.8 phosphate buffer
  Vol. req. to dissolve 1500 mg API: 106.38 mL
[1]; pH 7.2 phosphate buffer
  Vol. req. to dissolve 1500 mg API: 109.96 mL
[1]; purified water, water
  solubility: 15.3 mg/mL (≈ 63.4 mM)
[2]; [4]
  Assay (%): 99.2%
  Related Substances: Guaifenesin: 0.01%
  Related Substances: Methocarbamol Isomer: 0.01%
  Related Substances: Total Impurities: 0.02%
[2]; API in open Exposed Condition
  Assay (%): 99.8%
  Related Substances: Guaifenesin: 0.01%
  Related Substances: Methocarbamol Isomer: 0.02%
  Related Substances: Total Impurities: 0.03%
[2]; API, Initial
  Assay (%): 99.3%
  Related Substances: Guaifenesin: 0.03%
  Related Substances: Total Impurities: 0.03%
[2]; Methocarbamol API (Batch no: A), Initial, open Exposed Condition and Protected Condition (Control)
  Description: White Bulky Powder odorless
[3]
  Stability of methocarbamol in aqueous phase: probable instability
